Measured values: the supplement of paper PMC6045584
± gives the standard deviation of the averaged measurements.

Experiments:
FLUOROURACIL = compound: O=c1[nH]cc(F)c(=O)[nH]1 [FLUOROURACIL]; test: surviving fraction relative to DMSO-only wells; higher = less growth inhibition; settings: exposure time: 5 days
Summary of the method: (§1)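 Continuous five-day exposure to inhibitors at 0.5, 1, 5, 10, 50, 100, 500 and 1000 nM started 24 hours after log-phase tumour cell lines were seeded at 250–500 cells per well in 384-well plates. Luminescence was read after 10 minutes at room temperature. Viability is given as surviving fraction, meaning CellTiter-Glo luminescence normalised to the median of DMSO-only wells.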

DOXORUBICIN = compound: COc1cccc2c1C(=O)c1c(O)c3c(c(O)c1C2=O)C[C@@](O)(C(=O)CO)C[C@@H]3O[C@H]1C[C@H](N)[C@H](O)[C@H](C)O1 [DOXORUBICIN]; test: as above; settings: exposure time: 5 days
Summary of the method: as §1

| Test System | surviving fraction (FLUOROURACIL; 0.5 nM) | surviving fraction (FLUOROURACIL; 1 nM) | surviving fraction (FLUOROURACIL; 5 nM) | surviving fraction (FLUOROURACIL; 10 nM) | surviving fraction (FLUOROURACIL; 50 nM) | surviving fraction (FLUOROURACIL; 100 nM) | surviving fraction (FLUOROURACIL; 500 nM) | surviving fraction (FLUOROURACIL; 1000 nM) | surviving fraction (DOXORUBICIN; 0.5 nM) | surviving fraction (DOXORUBICIN; 1 nM) | surviving fraction (DOXORUBICIN; 5 nM) | surviving fraction (DOXORUBICIN; 10 nM) | surviving fraction (DOXORUBICIN; 50 nM) | surviving fraction (DOXORUBICIN; 100 nM) | surviving fraction (DOXORUBICIN; 500 nM) | surviving fraction (DOXORUBICIN; 1000 nM) |
| --- | --- | --- | --- | --- | --- | --- | --- | --- | --- | --- | --- | --- | --- | --- | --- | --- |
| SUM44 BREAST | 1.03 ± 0.23 | 0.958 ± 0.17 | 1.02 ± 0.16 | 0.956 ± 0.12 | 1.05 ± 0.12 | 0.788 ± 0.041 | 0.982 ± 0.05 | 0.726 ± 0.07 | 0.938 ± 0.054 | 0.887 ± 0.041 | 0.987 ± 0.044 | 0.895 ± 0.022 | 0.859 ± 0.06 | 0.811 ± 0.051 | 0.14 ± 0.021 | 0.054 ± 0.0027 |
| MDAMB134 BREAST | 0.823 ± 0.042 | 0.964 ± 0.16 | 0.832 ± 0.082 | 0.877 ± 0.18 | 0.745 ± 0.094 | 0.744 ± 0.12 | 0.748 ± 0.0042 | 0.714 ± 0.016 | 0.865 ± 0.0028 | 0.835 ± 0.098 | 1.03 ± 0.021 | 0.9 ± 0.098 | 0.734 ± 0.023 | 0.693 ± 0.085 | 0.106 ± 0.019 | 0.0295 ± 0.0035 |
| MHM BONE | 1.04 ± 0.07 | 1.02 ± 0.028 | 1.06 ± 0.047 | 1.04 ± 0.039 | 1.084 ± 0.0067 | – | 1.063 ± 0.0092 | 0.974 ± 0.034 | 0.992 ± 0.027 | 1.03 ± 0.016 | 1.008 ± 0.009 | 1.005 ± 0.0081 | 0.841 ± 0.029 | 0.792 ± 0.02 | 0.296 ± 0.031 | 0.16 ± 0.019 |
| HCT15 LARGE INTESTINE | 1.05 ± 0.062 | 1.01 ± 0.051 | 1.043 ± 0.01 | 0.995 ± 0.06 | 0.976 ± 0.069 | 0.878 ± 0.048 | 0.262 ± 0.013 | 0.163 ± 0.0084 | 1.01 ± 0.016 | 0.986 ± 0.044 | 1.01 ± 0.045 | 0.987 ± 0.02 | 0.486 ± 0.044 | 0.18 ± 0.018 | 0.0863 ± 0.005 | 0.066 ± 0.0027 |
| VCAP PROSTATE | 1.03 ± 0.11 | 1.06 ± 0.026 | 1.09 ± 0.044 | 1.22 ± 0.097 | 1.05 ± 0.077 | 0.998 ± 0.22 | 0.916 ± 0.17 | 0.939 ± 0.049 | 1.18 ± 0.094 | 0.982 ± 0.1 | 1.1 ± 0.073 | 0.51 ± 0.028 | 1.02 ± 0.052 | 0.291 ± 0.0036 | 0.0377 ± 0.0064 | 0.0397 ± 0.015 |
| HCC78 LUNG | 1.01 ± 0.16 | 0.913 ± 0.1 | 1.19 ± 0.12 | 0.986 ± 0.062 | 1.28 ± 0.093 | 1.1 ± 0.15 | 0.973 ± 0.1 | 0.432 ± 0.036 | 0.894 ± 0.24 | 0.733 ± 0.17 | 0.63 ± 0.1 | 0.538 ± 0.083 | 0.0747 ± 0.013 | 0.0363 ± 0.0042 | 0.0317 ± 0.0015 | 0.0217 ± 0.0042 |
| SUM149.B1*.S BREAST | 1.1 ± 0.044 | 1.06 ± 0.043 | 1.12 ± 0.028 | 1.04 ± 0.04 | 1.04 ± 0.064 | 0.962 ± 0.034 | 0.909 ± 0.03 | 0.812 ± 0.021 | 1.03 ± 0.031 | 1.065 ± 0.0083 | 1.01 ± 0.043 | 0.931 ± 0.041 | 0.285 ± 0.0081 | 0.179 ± 0.014 | 0.068 ± 0.0038 | 0.0518 ± 0.0023 |
| NY BONE | 0.98 ± 0.029 | 0.923 ± 0.032 | 1.03 ± 0.034 | 1.01 ± 0.028 | 1.07 ± 0.02 | 0.993 ± 0.018 | 0.934 ± 0.025 | 0.821 ± 0.014 | 0.959 ± 0.019 | 0.966 ± 0.013 | 0.981 ± 0.015 | 0.876 ± 0.058 | 0.294 ± 0.015 | 0.201 ± 0.0044 | 0.0617 ± 0.004 | 0.0443 ± 0.0057 |
| CHLA90 AUTONOMIC GANGLIA | 0.951 ± 0.021 | 0.946 ± 0.043 | 0.939 ± 0.059 | 1 ± 0.13 | 1.07 ± 0.054 | 1.04 ± 0.084 | 0.91 ± 0.12 | 0.886 ± 0.09 | 1 ± 0.024 | 0.982 ± 0.024 | 0.866 ± 0.053 | 0.763 ± 0.041 | 0.414 ± 0.038 | 0.187 ± 0.026 | 0.054 ± 0.0035 | 0.0323 ± 0.0021 |
| SAOS2 BONE | 1.04 ± 0.073 | 1.05 ± 0.037 | 1.11 ± 0.046 | 1.09 ± 0.02 | 0.826 ± 0.096 | 0.8 ± 0.17 | 0.758 ± 0.11 | 0.598 ± 0.2 | 1.13 ± 0.038 | 1.1 ± 0.054 | 1.09 ± 0.043 | 0.914 ± 0.055 | 0.277 ± 0.0081 | 0.111 ± 0.0087 | 0.036 | 0.0367 ± 0.0029 |
| SNU475 LIVER | 1 ± 0.058 | 0.982 ± 0.018 | 0.99 ± 0.046 | 0.9607 ± 0.0047 | 0.886 ± 0.021 | 0.892 ± 0.025 | 0.826 ± 0.081 | 0.741 ± 0.066 | 0.958 ± 0.051 | 0.9777 ± 0.0038 | 0.982 ± 0.018 | 0.958 ± 0.059 | 0.484 ± 0.034 | 0.392 ± 0.015 | 0.3 ± 0.032 | 0.192 ± 0.012 |
| HSSYII SYNOVIAL | 0.933 ± 0.045 | 0.938 ± 0.078 | 0.992 ± 0.075 | 0.949 ± 0.043 | 0.942 ± 0.016 | 0.911 ± 0.059 | 0.906 ± 0.028 | 0.853 ± 0.02 | 0.901 ± 0.025 | 0.759 ± 0.018 | 0.381 ± 0.02 | 0.157 ± 0.015 | 0.0632 ± 0.0042 | 0.0312 ± 0.002 | 0.0185 ± 0.0022 | 0.0217 ± 0.0019 |
| LNCAP PROSTATE | 1.07 ± 0.039 | 1.17 ± 0.076 | 1.07 ± 0.11 | 1.05 ± 0.043 | 1.17 ± 0.022 | 1.12 ± 0.021 | 0.964 ± 0.18 | 0.73 ± 0.11 | 0.973 ± 0.018 | 0.863 ± 0.076 | 0.483 ± 0.075 | 0.33 ± 0.029 | 0.124 ± 0.013 | 0.0727 ± 0.01 | 0.024 ± 0.0017 | 0.0247 ± 0.0011 |
| SCC90 HEADNECK | 0.968 ± 0.033 | 0.982 ± 0.096 | 1 ± 0.039 | 1.012 ± 0.009 | 0.928 ± 0.087 | 0.86 ± 0.1 | 0.908 ± 0.064 | 0.95 ± 0.08 | 0.967 ± 0.034 | 0.956 ± 0.046 | 0.954 ± 0.029 | 1.06 ± 0.1 | 0.711 ± 0.12 | 0.571 ± 0.072 | 0.11 ± 0.033 | 0.0687 ± 0.0095 |
| HOSMNG BONE | 0.969 ± 0.012 | 1.03 ± 0.037 | 0.933 ± 0.024 | 0.962 ± 0.043 | 1.12 ± 0.13 | 1.19 ± 0.042 | 1.03 ± 0.031 | 1.02 ± 0.037 | 0.976 ± 0.05 | 1.02 ± 0.032 | 0.983 ± 0.083 | 0.98 ± 0.07 | 0.549 ± 0.051 | 0.506 ± 0.025 | 0.165 ± 0.056 | 0.153 ± 0.037 |
| JURKAT HAEMATOPOIETIC AND LYMPHOID TISSUE | 1.14 ± 0.028 | 1.09 ± 0.0023 | 1.09 ± 0.049 | 1.09 ± 0.016 | 1.04 ± 0.069 | 1.03 ± 0.061 | 1.07 ± 0.022 | 0.842 ± 0.057 | 1.05 ± 0.023 | 1.049 ± 0.0078 | 0.61 ± 0.035 | 0.129 ± 0.004 | 0.0323 ± 0.00058 | 0.0293 ± 0.00058 | 0.027 | 0.0297 ± 0.00058 |
| 143B BONE | 1.12 ± 0.15 | 1.11 ± 0.079 | 1.14 ± 0.11 | 1.11 ± 0.094 | 1.14 ± 0.17 | 1.12 ± 0.13 | 1.1 ± 0.12 | 0.929 ± 0.029 | 1 ± 0.018 | 1.02 ± 0.0085 | 0.957 ± 0.0099 | 0.827 ± 0.013 | 0.417 ± 0.027 | 0.2785 ± 0.00071 | 0.0605 ± 0.0035 | 1.008 ± 0.0092 |
| SG27 HEADNECK | 1.07 ± 0.029 | 1.08 ± 0.13 | 0.991 ± 0.016 | 1.08 ± 0.053 | 1.08 ± 0.087 | 1 ± 0.13 | 1.137 ± 0.0093 | 1.01 ± 0.043 | 0.988 ± 0.057 | 0.967 ± 0.037 | 1.09 ± 0.094 | 1.04 ± 0.059 | 0.949 ± 0.038 | 0.867 ± 0.081 | 0.097 ± 0.014 | 0.0447 ± 0.019 |
| T47D BREAST | 1.02 ± 0.03 | 1.03 ± 0.03 | 1 ± 0.0033 | 1.01 ± 0.03 | 1.02 ± 0.041 | 0.95 ± 0.04 | 0.855 ± 0.02 | 0.761 ± 0.028 | 1.03 ± 0.03 | 1 ± 0.038 | 0.892 ± 0.018 | 0.673 ± 0.064 | 0.708 ± 0.021 | 0.518 ± 0.023 | 0.197 ± 0.033 | 0.0751 ± 0.0032 |
| MFM223 BREAST | 1.14 ± 0.21 | 1.12 ± 0.17 | 1.18 ± 0.22 | 1.096 ± 0.0076 | 0.719 ± 0.014 | 0.772 ± 0.062 | 0.738 ± 0.036 | 0.667 ± 0.032 | 1.11 ± 0.045 | 1.05 ± 0.032 | 0.975 ± 0.069 | 0.702 ± 0.12 | 0.669 ± 0.082 | 0.221 ± 0.013 | 0.079 ± 0.0053 | 0.052 ± 0.007 |
